US7576062B2, “Compounds with growth hormone releasing properties” (Novo Nordisk A/S, priority 1998, dated 2009)

What was measured:
[1] = system: trypsin, chymotrypsin and elastase; experiment: Metabolic stability in pancreatic enzyme mix (ESMS, SIM of molecular ion); assay type: in vitro ADME; settings: 0.025 mg/ml, 100 mM ammoniumbicarbonate pH 8.0, 37° C., 24 h in degradation solution, enzyme:substrate approx. 1:5
Experimental: (§1) The solution is left at 37° C. overnight.
(§2) Identification of degradation products furthermore involved the use of plasma desorption mass spectrometry (PDMS) with sample application on nitrocellulose coated targets and standard instrumental settings. The accuracy of the hereby determined masses is generally better than 0.1%.
(§3) Separation and isolation of degradation products was done using a HY-TACH C-18 reverse phase 4.6×105 mm HPLC column (Hewlett-Packard Company, Palo Alto, Calif.) with a standard acetonitril: TFA separation gradient. The HPLC system used was HP1090M (Hewlett-Packard Company, Palo Alto, Calif.).

carboxypeptidase Y and B = experiment: Metabolic stability in carboxypeptidase mix (ESMS, SIM of molecular ion); assay type: in vitro ADME; settings: 0.025 mg/ml, 50 mM ammoniumacetate pH 4.5, 37° C., 24 h in degradation solution, enzyme:substrate approx. 1:5
Experimental: as §1, §2, §3

Glucagon
Pan. enzyme mix (stability) [1]: − (Unstable (more than 20% decrease in SIM signal after 24 h in degradation solution)) | Carboxy-peptidase mix (stability) (carboxypeptidase Y and B): − (Unstable (more than 20% decrease in SIM signal after 24 h in degradation solution))
